From patent publication US7495030B2, “(5-(2-hydroxy-4-chlorobenzoyl) aminovaleric acid and salts thereof and compositions containing the same for delivering active agents” (Emisphere Technologies, Inc., priority 2000, dated 2009)

Legend:
[1] = Insulin oral delivery in rats, serum human insulin by ELISA and serum glucose; format: in vivo, Male Sprague-Dawley rats; details: delivery agent compound dose 200 mg/kg, insulin dose 0.5 mg/kg, volume dose 1.0 ml/kg
Experimental: Oral dosing (PO) compositions of delivery agent compound and human zinc insulin (minimum 26 IU/mg available from Calbiochem—Novabiochem Corp, La Jolla, Calif.) were prepared in deionized water. […] The solution was vortexed, then heated (about 37° C.) and sonicated. The pH was adjusted to about 7 to 8.5 with NaOH or HCl.
About 1.25 mg insulin from an insulin stock solution (15 mg/ml made from 0.5409 g insulin and […] deionized water, adjusting with HCl and NaOH to pH 8.15 and to obtain a clear solution using […]) was added to the solution and mixed by inverting.
The typical dosing and sampling protocols were as follows. […] A dosing group of five animals was administered one of the dosing solutions. […] The syringe was filled with dosing solution by drawing the solution through the catheter, which was then wiped dry. The catheter was placed down the esophagus leaving 1 cm of tubing past the incisors. Solution was administered by pressing the syringe plunger.
Serum insulin levels were determined with an Insulin ELISA Test Kit (Kit # DSL-10-1600 from Diagnostic Systems Laboratories, Inc., Webster, Tex.), modifying the standard protocol in order to optimize the sensitivity and linear range of the standard curve for the volumes and concentrations of the samples used in the present protocol. […]

melting point: 140 to 141 °C
Structure (SMILES): O=C(O)CCCCNC(=O)c1ccc(Cl)cc1O [Compound 1, 5-(2-Hydroxy-4-Chlorobenzoyl)Aminovaleric Acid]
Mean peak serum insulin [1]: 36.25 ± 2.5 μU/ml
